Results taken from patent US11466044B2 (WAYNE STATE UNIVERSITY, priority 2017, dated 2022).
Values after ≈ are worked out from the molar mass of the structure shown. Like-named read-outs stand apart in the source and are kept apart here.

Tests used:
E coli wild type = assay: MIC by broth microdilution, wild type E coli; type: cell-based; conditions: for MIC AG160 E. coli WT: clinical isolate AG160 WT; for MIC AG160 E. coli WT / MIC pH430 E. coli WT: Table 2 (Example 4); for MIC pH430 E. coli WT: engineered strain pH430 WT; for MIC AG212 E. coli: strain AG212 E. coli (ATCC25922)
P aeruginosa = assay: MIC by broth microdilution, P aeruginosa isolates; type: cell-based, Pseudomonas aeruginosa; conditions: for MIC50: Pseudomonas aeruginosa, Table 1 (Example 2)
[1] = test system: E coli carrying specific resistance determinants; assay: MIC by broth microdilution, E coli carrying specific resistance determinants; type: cell-based; conditions: for MIC AG037 E. coli APH(3′)-III: engineered strain AG037 APH(3′)-III; for MIC pH421 E. coli APH(3′)-I: engineered strain pH421 APH(3′)-I; for MIC pH422 E. coli APH(3′)-II: engineered strain pH422 APH(3′)-II; for MIC pH423 E. coli APH(3′)-VI: engineered strain pH423 APH(3′)-VI; for MIC50: Escherichia coli, Table 2B (Example 2)
[2] = test system: Klebsiella pneumonia AG215; assay: MIC by broth microdilution, Klebsiella pneumonia; type: cell-based; conditions: strain AG215 Klebsiella pneumonia
[3] = test system: Acinetobacter baumannii pittii AG225; assay: MIC by broth microdilution, Acinetobacter baumannii; type: cell-based; conditions: strain AG225 Acinetobacter baumannii pittii
[4] = test system: Enterobacter cloacae AG290; assay: MIC by broth microdilution, Enterobacter cloacae; type: cell-based; conditions: strain AG290 Enterobacter cloacae
M. smegmatis SZ380 = assay: MIC by broth microdilution, M. smegmatis; conditions: for MIC SZ380 M. smegmatis: strain SZ380 Mycobacterium smegmatis
MRSA = assay: MIC by broth microdilution, MRSA isolates; type: cell-based; conditions: for MIC50: Staphylococcus aureus, MRSA, Table 1 (Example 2)
[5] = strain AG220 Pseudomonas aeruginosa ATCC27853

Molecule: CCC[C@@H]1C(CO)O[C@H](O[C@@H]2C(N)C[C@@H](N)C(O)[C@H]2O[C@@H]2O[C@H](CO)[C@H](O[C@H]3C[C@@H](CN)[C@@H](O)C(O)C3N)C2O)[C@@H](N)C1O (stereo partly shown) [Compound 116]
- MIC AG160 E. coli WT (E coli wild type): 1 µg/mL (≈ 1.56 µM)
- MIC pH430 E. coli WT (E coli wild type): 0.5 μg/ml
- MIC AG212 E. coli (E coli wild type): 2 µg/mL (≈ 3.13 µM)
- MIC AG220 P. aerugin (P aeruginosa; [5]): 4 µg/mL (≈ 6.25 µM)
- MIC AG163 E. coli APH(3′)-I ([1]; clinical isolate AG163 APH(3′)-I, Table 2 (Example 4)): >64 µg/mL
- MIC AG166 E. coli APH(3′)-II ([1]; clinical isolate AG166 APH(3′)-II, Table 2 (Example 4)): 2 to 4 µg/mL
- MIC AG037 E. coli APH(3′)-III ([1]; Table 2 (Example 4)): >64 µg/mL
- MIC pH421 E. coli APH(3′)-I ([1]; Table 2 (Example 4)): >32 μg/ml
- MIC pH422 E. coli APH(3′)-II ([1]; Table 2 (Example 4)): 0.5 μg/ml
- MIC pH423 E. coli APH(3′)-VI ([1]; Table 2 (Example 4)): 1 μg/ml
- MIC AG215 K. pneumon [2]: 1 µg/mL (≈ 1.56 µM)
- MIC AG225 A. baumannii [3]: 2 µg/mL (≈ 3.13 µM)
- MIC AG290 E. cloacae [4]: 1 µg/mL (≈ 1.56 µM)
- MIC SZ380 M. smegmatis (M. smegmatis SZ380): 1 µg/mL (≈ 1.56 µM)

Molecule: 5″-Deoxy-5″-ureido-paromomycin acetate salt [Compound 141]
- MIC50 MRSA AG38 (MRSA; strain AG38, Table 1 (Example 1)): 4 to 8 µg/mL
- MIC50 MRSA AG39 (MRSA; strain AG39, Table 1 (Example 1)): >128 µg/mL
- MIC50 MRSA AG42 (MRSA; strain AG42, Table 1 (Example 1)): >128 µg/mL
- MIC50 MRSA AG44 (MRSA; strain AG44, Table 1 (Example 1)): 4 µg/mL
- MIC E coli AG006 wt (E coli wild type; AG006 wt, Table 2 (Example 1)): 1 µg/mL
- MIC AG160 E. coli WT (E coli wild type): 4 µg/mL
- MIC pH430 E. coli WT (E coli wild type): 2-4 μg/ml
- MIC50 E coli AG01 (E coli wild type; strain AG01, Table 1 (Example 1)): 16 µg/mL
- MIC50 E coli AG03 (E coli wild type; strain AG03, Table 1 (Example 1)): 16 µg/mL
- MIC50 E coli AG55 (E coli wild type; strain AG55, Table 1 (Example 1)): 16 µg/mL
- MIC AG212 E. coli (E coli wild type): 4 µg/mL
- MIC50 P aeruginosa AG31 (P aeruginosa; strain AG31, Table 1 (Example 1)): >128 µg/mL
- MIC50 P aeruginosa AG32 (P aeruginosa; strain AG32, Table 1 (Example 1)): >128 µg/mL
- MIC50 P aeruginosa AG33 (P aeruginosa; strain AG33, Table 1 (Example 1)): >128 µg/mL
- MIC50 P aeruginosa AG86 (P aeruginosa; strain AG86, Table 1 (Example 1)): >128 µg/mL
- MIC AG220 P. aerugin (P aeruginosa; [5]): >64 µg/mL
- MIC AG037 E. coli APH(3′)-III ([1]; Table 2 (Example 4)): >128 µg/mL
- MIC pH421 E. coli APH(3′)-I ([1]; Table 2 (Example 4)): >64 μg/ml
- MIC pH422 E. coli APH(3′)-II ([1]; Table 2 (Example 4)): >64 μg/ml
- MIC pH423 E. coli APH(3′)-VI ([1]; Table 2 (Example 4)): >64 μg/ml
- MIC AG215 K. pneumon [2]: 2 µg/mL
- MIC AG225 A. baumannii [3]: 4 µg/mL
- MIC AG290 E. cloacae [4]: 2 to 4 µg/mL
- MIC SZ380 M. smegmatis (M. smegmatis SZ380): 2 µg/mL

Molecule: CC(C)(O)C1O[C@H](O[C@@H]2C(N)C[C@@H](N)C(O)[C@H]2O[C@@H]2O[C@H](CO)[C@H](O[C@H]3O[C@@H](CN)[C@@H](O)C(O)C3N)C2O)C(N)[C@@H](O)[C@@H]1O (stereo partly shown) [Compound 159]
- MIC50 (MRSA; strain AG38, read-out: MIC50 MRSA AG38): 8 to 16 µg/mL (≈ 12.4 to 24.9 µM)
- MIC50 (MRSA; strain AG39, read-out: MIC50 MRSA AG39): > 128 µg/mL
- MIC50 (MRSA; strain AG42, read-out: MIC50 MRSA AG42): > 128 µg/mL
- MIC50 (MRSA; strain AG44, read-out: MIC50 MRSA AG44): 4 to 8 µg/mL (≈ 6.21 to 12.4 µM)
- MIC (E coli wild type; Escherichia coli, ATCC25922, strain AG212 E. coli (ATCC25922), read-out: MIC AG212 E. coli): 4 µg/mL (≈ 6.21 µM)
- MIC50 (E coli wild type; Escherichia coli, BM13 (AG06) wt, Table 2A (Example 2), read-out: MIC50 E coli BM13 (AG06) wt): 4 µg/mL (≈ 6.21 µM)
- MIC50 (E coli wild type; Escherichia coli, pH430 WT, Table 2B (Example 2), read-out: MIC50 E coli pH430 WT): 1 to 2 µg/mL (≈ 1.55 to 3.11 µM)
- MIC50 (E coli wild type; Escherichia coli, strain AG01, Table 1 (Example 2), read-out: MIC50 E coli AG01): 8 µg/mL (≈ 12.4 µM)
- MIC50 (E coli wild type; Escherichia coli, strain AG03, Table 1 (Example 2), read-out: MIC50 E coli AG03): 8 µg/mL (≈ 12.4 µM)
- MIC50 (E coli wild type; Escherichia coli, strain AG55, Table 1 (Example 2), read-out: MIC50 E coli AG55): 8 µg/mL (≈ 12.4 µM)
- MIC50 (P aeruginosa; strain AG31, read-out: MIC50 P aeruginosa AG31): > 128 µg/mL
- MIC50 (P aeruginosa; strain AG32, read-out: MIC50 P aeruginosa AG32): > 128 µg/mL
- MIC50 (P aeruginosa; strain AG33, read-out: MIC50 P aeruginosa AG33): > 128 µg/mL
- MIC50 (P aeruginosa; strain AG86, read-out: MIC50 P aeruginosa AG86): > 128 µg/mL
- MIC (P aeruginosa; strain AG220 Pseudomonas aeruginosa ATCC27853, read-out: MIC AG220 P. aerugin): > 64 µg/mL
- MIC50 ([1]; read-out: MIC50 E coli AG036 ANT(4′,4″), AG036 ANT(4′,4″)): 16 to 32 µg/mL (≈ 24.9 to 49.7 µM)
- MIC50 ([1]; read-out: MIC50 E coli AG037 APH(3′)-III, AG037 APH(3′)-III): > 64 µg/mL
- MIC50 ([1]; read-out: MIC50 E coli AG103 armA, AG103 armA): 4 to 8 µg/mL (≈ 6.21 to 12.4 µM)
- MIC50 ([1]; read-out: MIC50 E coli pH421 APH(3′)-I, pH421 APH(3′)-I): > 64 µg/mL
- MIC50 ([1]; read-out: MIC50 E coli pH422 APH(3′)-II, pH422 APH(3′)-II): > 64 µg/mL
- MIC50 ([1]; read-out: MIC50 E coli pH423 APH(3)-VI, pH423 APH(3)-VI): 8 µg/mL (≈ 12.4 µM)
- MIC50 ([1]; read-out: MIC50 E coli pH432 ANT(4′), pH432 ANT(4′)): 2 µg/mL (≈ 3.11 µM)
- MIC ([2]; Klebsiella pneumoniae, read-out: MIC AG215 K. pneumon): 1 to 2 µg/mL (≈ 1.55 to 3.11 µM)
- MIC [3]: 4 µg/mL (≈ 6.21 µM)
- MIC ([4]; read-out: MIC AG290 E. cloacae): 2 µg/mL (≈ 3.11 µM)
- MIC (M. smegmatis SZ380; Mycolicibacterium smegmatis, SZ380, read-out: MIC SZ380 M. smegmatis, strain SZ380 Mycobacterium smegmatis): 2 µg/mL (≈ 3.11 µM)
